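A five-concentration, 48-hour dose response in 96-well plates underlies each endpoint, interpolated linearly between surrounding concentrations. GI50 marks 50% less growth.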 Active and inactive are the calls of the source. No stated cut-off is given here; in the data, active = GI50 up to about 1.1 µM and inactive = higher.
Legend:
Assay in all cases: growth of human tumour cells (NCI), 48 h
MDA-MB-435 = test system: MDA-MB-435
HCT-116 = test system: HCT-116
A498 = test system: A498
BT-549 = test system: BT-549
T47D = test system: T47D
CAKI-1 = test system: CAKI-1
UACC-62 = test system: UACC-62
A549 = test system: A549
SW-620 = test system: SW-620
NCI-H522 = test system: NCI-H522
SN12C = test system: SN12C
SK-MEL-28 = test system: SK-MEL-28
PC-3 = test system: PC-3
HT-29 = test system: HT-29
OVCAR-8 = test system: OVCAR-8
MDA-MB-231 = test system: MDA-MB-231
DU-145 = test system: DU-145
OVCAR-5 = test system: OVCAR-5
Hs-578T = test system: Hs-578T
COLO 205 = test system: COLO 205

Measured: GI50

COc1ccc(CC(O)CN2CCOCC2)cc1 (stereo unspecified)
inactive: MDA-MB-435 > 100 µM | HCT-116 > 100 µM | A498 > 100 µM | BT-549 > 100 µM | T47D > 100 µM | CAKI-1 > 100 µM | UACC-62 > 100 µM | A549 > 100 µM | SW-620 > 100 µM | NCI-H522 > 100 µM | SN12C > 100 µM | SK-MEL-28 > 100 µM | PC-3 > 100 µM | HT-29 > 100 µM | OVCAR-8 > 100 µM | MDA-MB-231 > 100 µM | DU-145 > 100 µM | OVCAR-5 > 100 µM | Hs-578T > 100 µM

O=c1c(C(c2ccc([N+](=O)[O-])cc2)c2c(O)oc3ccccc3c2=O)c(O)oc2ccccc12
inactive: MDA-MB-435 > 100 µM | HCT-116 > 100 µM | COLO 205 > 100 µM | A498 > 100 µM | BT-549 > 100 µM | T47D > 100 µM | CAKI-1 > 100 µM | UACC-62 > 100 µM | SW-620 > 100 µM | NCI-H522 > 100 µM | SN12C > 100 µM | SK-MEL-28 > 100 µM | PC-3 > 100 µM | HT-29 > 100 µM | OVCAR-8 > 100 µM | MDA-MB-231 > 100 µM | DU-145 > 100 µM | Hs-578T > 100 µM

CCCCC(=O)c1ccc2ccccc2c1O
inactive: MDA-MB-435 > 100 µM | HCT-116 > 100 µM | COLO 205 88.9 µM | A498 > 100 µM | BT-549 > 100 µM | T47D 49.2 µM | CAKI-1 > 100 µM | UACC-62 > 100 µM | SW-620 > 100 µM | SK-MEL-28 > 100 µM | PC-3 > 100 µM | HT-29 > 100 µM | OVCAR-8 > 100 µM | MDA-MB-231 66.4 µM | DU-145 > 100 µM | Hs-578T > 100 µM

CC1(C(=O)O)CCCC1C(=O)O (stereo unspecified)
inactive: HCT-116 > 100 µM | A498 > 100 µM | BT-549 > 100 µM | T47D > 100 µM | CAKI-1 > 100 µM | UACC-62 > 100 µM | A549 > 100 µM | SW-620 > 100 µM | NCI-H522 > 100 µM | SN12C > 100 µM | SK-MEL-28 > 100 µM | PC-3 > 100 µM | HT-29 > 100 µM | OVCAR-8 > 100 µM | MDA-MB-231 > 100 µM | DU-145 > 100 µM | OVCAR-5 > 100 µM | Hs-578T > 100 µM

O=S(=O)(O)c1ccc(/N=N/c2ccc(/N=N/c3c(O)c(S(=O)(=O)O)cc4cc(S(=O)(=O)O)ccc34)cc2)cc1
inactive: MDA-MB-435 > 100 µM | HCT-116 > 100 µM | COLO 205 > 100 µM | BT-549 > 100 µM | T47D > 100 µM | CAKI-1 > 100 µM | UACC-62 > 100 µM | A549 > 100 µM | SW-620 > 100 µM | NCI-H522 > 100 µM | SN12C > 100 µM | SK-MEL-28 > 100 µM | PC-3 > 100 µM | HT-29 > 100 µM | OVCAR-8 > 100 µM | MDA-MB-231 > 100 µM | DU-145 > 100 µM | OVCAR-5 > 100 µM | Hs-578T > 100 µM

Cc1ccc(SCC(OCn2cnc3c(Cl)nc(N)nc32)[C@H](C)F)cc1 (stereo partly specified)
inactive: MDA-MB-435 > 100 µM | HCT-116 50.4 µM | COLO 205 > 100 µM | BT-549 52.4 µM | T47D 71.1 µM | CAKI-1 > 100 µM | UACC-62 > 100 µM | A549 69.5 µM | SW-620 > 100 µM | NCI-H522 13.8 µM | SN12C 43.7 µM | SK-MEL-28 > 100 µM | PC-3 60.5 µM | HT-29 82.2 µM | OVCAR-8 63 µM | MDA-MB-231 46.7 µM | DU-145 > 100 µM | OVCAR-5 > 100 µM | Hs-578T > 100 µM

Cc1cc(-c2nc3c(O)cccc3s2)ccc1N
inactive: MDA-MB-435 17.7 µM | HCT-116 20.4 µM | COLO 205 38.7 µM | BT-549 22.1 µM | T47D 74.5 µM | CAKI-1 21.3 µM | UACC-62 12.2 µM | A549 19.1 µM | SW-620 41.4 µM | NCI-H522 17.2 µM | SN12C 27.2 µM | SK-MEL-28 57.9 µM | PC-3 21.2 µM | HT-29 21.8 µM | OVCAR-8 20 µM | MDA-MB-231 22.9 µM | DU-145 > 100 µM | Hs-578T 18.2 µM

O=C(C/N=C(\CN(c1ccccc1)c1ccccc1)Oc1ccc(Cl)cc1Cl)n1ccnc1
inactive: MDA-MB-435 > 100 µM | HCT-116 > 100 µM | COLO 205 > 100 µM | A498 > 100 µM | BT-549 > 100 µM | T47D > 100 µM | UACC-62 > 100 µM | A549 > 100 µM | SW-620 > 100 µM | SN12C > 100 µM | SK-MEL-28 > 100 µM | PC-3 > 100 µM | HT-29 > 100 µM | OVCAR-8 > 100 µM | MDA-MB-231 > 100 µM | DU-145 > 100 µM | OVCAR-5 > 100 µM | Hs-578T > 100 µM

O=C(O)Cc1ccc(/N=N/c2c(O)c(C(=O)O)cc3ccccc23)cc1
inactive: MDA-MB-435 > 100 µM | HCT-116 > 100 µM | COLO 205 > 100 µM | BT-549 > 100 µM | T47D > 100 µM | CAKI-1 > 100 µM | UACC-62 > 100 µM | A549 > 100 µM | SW-620 > 100 µM | SN12C > 100 µM | SK-MEL-28 > 100 µM | PC-3 > 100 µM | HT-29 > 100 µM | OVCAR-8 > 100 µM | MDA-MB-231 > 100 µM | DU-145 > 100 µM | OVCAR-5 > 100 µM | Hs-578T > 100 µM

Cc1ccc(Cc2nnc(S)[nH]2)cc1
inactive: MDA-MB-435 > 100 µM | HCT-116 54.8 µM | COLO 205 > 100 µM | A498 > 100 µM | BT-549 > 100 µM | T47D 40.8 µM | CAKI-1 > 100 µM | UACC-62 > 100 µM | A549 84.7 µM | SW-620 > 100 µM | SN12C > 100 µM | SK-MEL-28 > 100 µM | PC-3 > 100 µM | HT-29 > 100 µM | OVCAR-8 79.4 µM | MDA-MB-231 > 100 µM | DU-145 70.8 µM | OVCAR-5 > 100 µM | Hs-578T 47.2 µM

CC(/C=C/c1ccccc1)=N\NC(=S)N/N=C(C)/C=C/c1ccccc1
inactive: MDA-MB-435 15.5 µM | HCT-116 4.03 µM | COLO 205 19 µM | A498 1.24 µM | BT-549 24.5 µM | T47D 13.9 µM | UACC-62 26.2 µM | A549 17.9 µM | SW-620 15.8 µM | NCI-H522 25.3 µM | SN12C 34.4 µM | SK-MEL-28 15.4 µM | PC-3 23.9 µM | HT-29 8.69 µM | OVCAR-8 17.5 µM | MDA-MB-231 12.8 µM | DU-145 31.2 µM | OVCAR-5 28.5 µM | Hs-578T > 100 µM

— ChEMBL document CHEMBL1201862, “PubChem BioAssay data set” (2004)
